Target: T1, human adenosine A3 receptor (Homo sapiens, UniProt P0DMS8)
T1 construct: expressed in transfected cells; membrane fraction used
T1 sequence (P0DMS8 1-318): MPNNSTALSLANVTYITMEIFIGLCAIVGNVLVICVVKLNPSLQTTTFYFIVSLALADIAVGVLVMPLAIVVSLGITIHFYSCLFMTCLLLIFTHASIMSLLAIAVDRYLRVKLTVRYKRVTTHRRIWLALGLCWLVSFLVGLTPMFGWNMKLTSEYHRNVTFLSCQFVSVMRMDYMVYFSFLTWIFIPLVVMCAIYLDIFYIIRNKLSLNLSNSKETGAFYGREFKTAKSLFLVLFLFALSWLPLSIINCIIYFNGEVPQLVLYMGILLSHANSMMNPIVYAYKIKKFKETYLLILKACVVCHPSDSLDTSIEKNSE
Test: Binding assays with adenosine A3 receptor ([3H]-NECA displacement, A3AR/CHO cell membranes)
Details: [3H]-NECA as ligand; 100 μg/mL membranes of CHO cells expressing human adenosine A3 receptor; 1 hour at room temperature; read-out: IC50 (concentration that inhibits 50% specific binding of [3H]-NECA to the membrane)
Description: The following procedures in this Example were carried out according to the methods described in Molecular Cloning —Cold Spring Harbor Laboratory (1989) or protocol specified by manufacturers.
Cloning of the human adenosine A3 receptor gene was carried out by the polymerase chain reaction (PCR) from human brain cDNA. Using 1 ng of brain cDNA (Quick-Clone cDNA, TOYOBO, Osaka) as template, PCR was performed in DNA Thermal Cycler 480 (Perkin Elmer) (reaction conditions: 35 cycles of 1 min at 95° C., 1 min at 66° C., and 2 min at 75° C.) by mixing primers (50 pmol each),
5′-[…]-3′ [Sequence No. 1] and 5′-[…]-3′ [Sequence No. 2], which were designed referring to nucleotide sequence of adenosine A3 receptor gene reported by Salvatore et. al., (Proc. Natl. Acad. Sci. U. S. A., 90:10365-10369, 1993) and TaKaRa LA PCR Kit Ver.2 (TaKaRa Shuzo Co. Ltd., Kyoto). The PCR product was electrophoresed and 1.0 kb DNA fragment was recovered. The DNA fragment encoding adenosine A3 receptor was cloned using Original TA Cloning Kit (FUNAKOSHI, Tokyo).
Thus obtained plasmid was digested with Xba I (TaKaRa Shuzo Co. Ltd., Kyoto), blunted with T4 DNA polymerase (TaKaRa Shuzo Co. Ltd., Kyoto) and digested with Sal I (TaKaRa Shuzo Co. Ltd., Kyoto) to obtain adenosine A3 receptor gene fragment. […]

## COc1ccc(-c2c(-c3ccncc3)sc3nc(=O)cc(N)n23)cc1 [Example Compound 1, 5-Amino-3-(4-methoxyphenyl)-2-(4-pyridyl)-7H-thiazolo[3,2-a]pyrimidin-7-one]
  IC50: 3.5 nM
